Measured values reported in US3935236A, “Aminopropanol substituted isochromanones and phthalides” (Gruppo Lepetit, S.p.A., priority 1973, dated 1976).
Like-named read-outs stand apart in the source and are kept apart here.

Assays:
LD50 os (acute toxicity) = details: in vivo, po
β-receptors = biological target: T1, β-receptors (Canis lupus familiaris, UniProt P79148); test: antagonizing isopropylnoradrenaline induced tachycardia in conscious dogs (i.v.); assay type: in vivo; details: dog, iv, read-out: ED50 in antagonizing isopropylnoradrenaline induced tachycardia
T1 construct: tachycardia in conscious dogs; from tissue; host or cells: heart in the living conscious dog (in vivo, i.v. dosing)
From the text: As a standard compound pronethalol was taken into consideration. Pronethalol, i.e. 2-isopropylamino-1-([…])-ethanol, is a known β-blocking agent.

T1 sequence (P79148 whole entry): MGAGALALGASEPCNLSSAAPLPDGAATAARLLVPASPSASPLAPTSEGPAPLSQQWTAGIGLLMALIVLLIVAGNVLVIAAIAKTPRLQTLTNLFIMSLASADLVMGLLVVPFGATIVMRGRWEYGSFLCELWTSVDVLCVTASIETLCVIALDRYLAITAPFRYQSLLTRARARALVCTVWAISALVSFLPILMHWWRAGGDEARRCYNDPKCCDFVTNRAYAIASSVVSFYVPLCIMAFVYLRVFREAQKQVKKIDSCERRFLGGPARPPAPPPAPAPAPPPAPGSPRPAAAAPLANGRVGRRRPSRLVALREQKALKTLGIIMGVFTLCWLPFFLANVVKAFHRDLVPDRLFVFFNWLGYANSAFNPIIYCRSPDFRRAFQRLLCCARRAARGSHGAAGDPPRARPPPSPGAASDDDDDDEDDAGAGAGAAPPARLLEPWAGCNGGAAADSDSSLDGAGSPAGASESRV

Compound | LD50 (LD50 os (acute toxicity)) [mg/kg] | ED50 (β-receptors) [mg/kg] | ED50 (β-receptors; conscious dogs, i.v.) [mg/kg]
CC(C)NCC(O)COc1cccc2c1C(=O)OC2.Cl (centres unmarked) [Example 1, 7-(2-Hydroxy-3-isopropylamino-propoxy)-phthalide hydrochloride] | > 500 | 0.01 | 
CC(C)NCC(O)COc1ccc2c(c1)C(=O)OC2 (centres unmarked) [Example 2, 6-(2-Hydroxy-3-isopropylamino-propoxy)-phthalide] | > 500 |  | 0.3
CC(C)(C)NCC(O)COc1cccc2c1C(=O)OC2.Cl (centres unmarked) [Example 5, 7-(2-Hydroxy-3-tert-butylamino-propoxy)-phthalide hydrochloride] | > 500 |  | 
CC(C)NCC(O)COc1ccc2c(c1)C(=O)OCC2.Cl (centres unmarked) [Example 6, 7-(2-Hydroxy-3-isopropylamino-propoxy)-1-isochromanone hydrochloride] | > 500 | 0.1 | 
CC(C)(C)NCC(O)COc1ccc2c(c1)C(=O)OCC2.Cl (centres unmarked) [Example 7, 7-(2-Hydroxy-3-tert-butylamino-propoxy)-1-isochromanone hydrochloride] | > 500 | 0.055 | 
CC(C)(C)NCC(O)COc1cccc2c1COC2=O.Cl (centres unmarked) [Example 8, 4-(2-Hydroxy-3-tert-butylaminopropoxy)-phthalide hydrochloride] | > 500 | 0.07 | 
CC(C)(C)NCC(O)COc1ccc2c(c1)C(=O)OC2.Cl (centres unmarked) [Example 9, 6-(2-Hydroxy-3-tert-butylamino-propoxy)-phthalide hydrochloride] | > 500 | 0.1 | 
CC(C)CNCC(O)COc1cccc2c1C(=O)OC2.Cl (centres unmarked) [Example 10, 7-(2-Hydroxy-3-isobutylamino-propoxy)-phthalide hydrochloride] | > 500 | 0.1 | 
CC(C)(C)NCC(O)COc1cccc2c1C(=O)OCC2.Cl (centres unmarked) [Example 12, 8-(2-Hydroxy-3-tert-butylamino-propoxy)-1-isochromanone hydrochloride] | > 500 | 0.003 | 
COc1cc(OCC(O)CNC(C)(C)C)c2c(c1)C(=O)OC(C)C2.Cl (centres unmarked) [Example 13, 5-(2-Hydroxy-3-tert-butylamino-propoxy)-7-methoxy-3-methyl-1-isochromanone hydrochloride] | > 500 | 0.005 | 
CCC1Cc2c(OCC(O)CNC(C)(C)C)cc(OC)cc2C(=O)O1.Cl (centres unmarked) [Example 14, 3-Ethyl-5-(2-hydroxy-3-tert-butylamino-propoxy)-7-methoxy-1-isochromanone hydrochloride] | > 500 | 0.1 | 
COc1cc(OCC(O)CNC(C)(C)C)c2c(c1)C(=O)OC(C)(C)C2.O=C(O)C(=O)O (centres unmarked) [Example 15, 5-(2-Hydroxy-tert-butylamino-propoxy)-7-methoxy-3,3-dimethyl-1-isochromanone oxalate] | > 500 | 0.018 | 
